Test systems include MDA-N; SW-620; SR; RXF 393; HCT-15; MOLT-4; UO-31; COLO 205; T47D; UACC-62; M14; CAKI-1; SNB-75; 786-0; SK-MEL-2; U-251; NCI-H23; NCI-H522; K562; HCC 2998.
What all share (experiment): NCI tumour cell line growth inhibition, 48 h

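Growth conditions: 96-well plates. Treatment: test compound, 48 hours, 5 concentrations. Analysis: linear interpolation between bracketing concentrations; unreached endpoints set to highest concentration. GI50 marks 50% less growth.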 Calls of active or inactive are those of the source. Cut-off read from the data, not from the text of the source: active = GI50 up to about 1.1 µM and inactive = higher.

In the case of `OC1(c2ccc3ccccc3c2)c2c(c3ccccc3c3ccccc23)C2=NCCN21` (stereo not given), the GI50 with MDA-N is 1.96 µM (inactive); in the experiment on SW-620 it was 3.34 µM (inactive); with SR, 3.08 µM (inactive); in the experiment on RXF 393, 2.47 µM (inactive); in the experiment on HCT-15, 4.63 µM; with MOLT-4, 4.81 µM (inactive). Besides, the GI50 in the experiment on UO-31 was 6.92 µM (inactive); in the experiment on COLO 205 it was 1.85 µM (inactive); in the experiment with T47D it was 4.45 µM (inactive); in the experiment with UACC-62, 13.5 µM (inactive); in the experiment with M14, 2.12 µM (inactive); in the experiment with CAKI-1, 11.7 µM (inactive). The GI50 is 3.11 µM (inactive) in the experiment on SNB-75; 7.5 µM (inactive) with 786-0; 7.16 µM (inactive) in the experiment with SK-MEL-2; 5.75 µM (inactive) in the experiment with U-251; 12.1 µM (inactive) in the experiment on NCI-H23; 3.85 µM (inactive) in the experiment with NCI-H522. The GI50 in the experiment on K562 is 3.81 µM (inactive).

Regarding `CC(C)c1ccc(/C(C(=O)O)=C(\O)C(=O)O)cc1`, the GI50 in the experiment with MDA-N is > 100 µM (inactive); with SW-620 it was > 100 µM (inactive); in the experiment on SR, > 100 µM (inactive); with RXF 393 it was > 100 µM (inactive); in the experiment with HCT-15, above 100 µM; with MOLT-4 it was > 100 µM (inactive). For the same molecule, the GI50 in the experiment on UO-31, with COLO 205, with T47D, in the experiment on UACC-62, with M14 and with CAKI-1 was > 100 µM (inactive) each time. The GI50 with SNB-75, in the experiment on 786-0, in the experiment with SK-MEL-2, in the experiment on U-251, in the experiment on NCI-H23 and with NCI-H522 was > 100 µM (inactive) each time. Also, the GI50 in the experiment on K562 was > 100 µM (inactive).

Turning to `CNc1ccc(Cl)cc1S(=O)(=O)c1ccccc1[N+](=O)[O-]`, the GI50 with MDA-N is > 100 µM (inactive); in the experiment on SW-620, > 100 µM (inactive); with SR, > 100 µM (inactive); in the experiment with RXF 393 it was > 100 µM (inactive); in the experiment on HCT-15, above 100 µM; with MOLT-4 it was > 100 µM (inactive). The GI50 in the experiment on UO-31, with COLO 205, in the experiment with T47D, in the experiment on UACC-62, with M14 and in the experiment on SNB-75 was > 100 µM (inactive) throughout. Further, the GI50 in the experiment on 786-0, in the experiment with SK-MEL-2, in the experiment on HCC 2998, with U-251, with NCI-H23 and with NCI-H522 was > 100 µM (inactive) throughout. Moreover, the GI50 in the experiment with K562 is > 100 µM (inactive).

With `O=[N+]([O-])c1ccc(/C=N/n2c(S)nnc2CCc2nnc(S)n2/N=C/c2ccc([N+](=O)[O-])o2)o1`, the GI50 with MDA-N is 13.8 µM (inactive); with SW-620 it was 16.7 µM (inactive); with SR, 28.3 µM (inactive); with RXF 393, 16.7 µM (inactive); with HCT-15, 15.9 µM; with MOLT-4, 24.8 µM (inactive). In addition, the GI50 with UO-31 is 29.3 µM (inactive); in the experiment on T47D it was 23.1 µM (inactive); in the experiment on M14 it was 19.2 µM (inactive); in the experiment on CAKI-1, 20.2 µM (inactive); in the experiment on 786-0 it was 17.1 µM (inactive); in the experiment on SK-MEL-2 it was 18.5 µM (inactive). Also, the GI50 is 17.6 µM (inactive) in the experiment on HCC 2998; 20 µM (inactive) with U-251; 16.7 µM (inactive) in the experiment with NCI-H23; 22.2 µM (inactive) in the experiment with NCI-H522; 28.6 µM (inactive) in the experiment with K562.

Turning to `O=c1[nH]c2ccc(Cl)cc2c2oc(-c3ccccc3)nc12`, the GI50 was 45.7 µM (inactive) with MDA-N; 44.6 µM (inactive) in the experiment with SW-620; 21 µM (inactive) in the experiment on SR; 14.1 µM (inactive) with RXF 393; 51.6 µM with HCT-15; 76.2 µM (inactive) in the experiment with MOLT-4. Moreover, the GI50 with UO-31 is 22.1 µM (inactive); in the experiment with COLO 205 it was 65.8 µM (inactive); in the experiment on T47D, 19.2 µM (inactive); in the experiment with UACC-62, 70.5 µM (inactive); in the experiment with M14, 88.5 µM (inactive); in the experiment on CAKI-1, 21.6 µM (inactive). The GI50 in the experiment on 786-0 is 16 µM (inactive); with SK-MEL-2 it was 17.8 µM (inactive); with HCC 2998 it was 26.3 µM (inactive); with U-251 it was 20.7 µM (inactive); in the experiment on NCI-H23, 25.2 µM (inactive); with NCI-H522, 16.9 µM (inactive). Also, in the experiment on K562, the GI50 is 72.6 µM (inactive).

As for `Nc1c(Br)cc(-c2nc3ccccc3s2)cc1Br`, the GI50 in the experiment with MDA-N is > 100 µM (inactive); with SW-620 it was > 100 µM (inactive); in the experiment with SR it was > 100 µM (inactive); in the experiment with RXF 393 it was > 100 µM (inactive); in the experiment with HCT-15, above 100 µM; in the experiment on MOLT-4 it was > 100 µM (inactive). For the same molecule, the GI50 in the experiment with UO-31, in the experiment on COLO 205, with T47D, in the experiment with UACC-62, with M14 and in the experiment with CAKI-1 was > 100 µM (inactive) in each case. The GI50 with SNB-75 was > 100 µM (inactive); with 786-0, > 100 µM (inactive); in the experiment on SK-MEL-2 it was > 100 µM (inactive); in the experiment with HCC 2998, 30.6 µM (inactive); in the experiment on U-251, > 100 µM (inactive); in the experiment on NCI-H522, > 100 µM (inactive). The GI50 in the experiment on K562 is > 100 µM (inactive).

Regarding `O=C(O)/C=C\C(=O)Nn1c(Cc2ccc(Cl)cc2)n[nH]c1=O`, the GI50 was > 100 µM (inactive) in the experiment on MDA-N; > 100 µM (inactive) with SR; > 100 µM (inactive) with RXF 393; above 100 µM with HCT-15; > 100 µM (inactive) in the experiment on MOLT-4; > 100 µM (inactive) in the experiment on COLO 205. Besides, the GI50 with T47D, in the experiment with UACC-62, in the experiment on M14, with CAKI-1, in the experiment with 786-0 and in the experiment on SK-MEL-2 was > 100 µM (inactive) throughout. The GI50 in the experiment on HCC 2998, with U-251, with NCI-H23, in the experiment with NCI-H522 and with K562 was > 100 µM (inactive) each time.

As to `O=C(O)[C@@H]1C2CC([C@@H]1C(=O)O)[C@H](N1C(=O)CCC1=O)[C@@H]2Br` (stereo not given in full), the GI50 in the experiment with MDA-N is > 100 µM (inactive); in the experiment on SW-620 it was > 100 µM (inactive); in the experiment with SR, > 100 µM (inactive); in the experiment on RXF 393, > 100 µM (inactive); with HCT-15, above 100 µM; with MOLT-4, > 100 µM (inactive). The GI50 in the experiment on UO-31 was > 100 µM (inactive); with COLO 205 it was > 100 µM (inactive); in the experiment with T47D, > 100 µM (inactive); in the experiment on UACC-62 it was > 100 µM (inactive); in the experiment on M14 it was > 100 µM (inactive); in the experiment with SNB-75, 84.5 µM (inactive). For the same molecule, the GI50 in the experiment on 786-0, in the experiment with SK-MEL-2, with HCC 2998, in the experiment with U-251, in the experiment with NCI-H23 and in the experiment on NCI-H522 was > 100 µM (inactive) in each case. Also, the GI50 in the experiment on K562 is > 100 µM (inactive).

Consider `CC1(C)CCCCCC(O)C(O)CCC(C)(C)C1=O` (stereo not given), for which the GI50 in the experiment on MDA-N is > 100 µM (inactive); in the experiment with SW-620, > 100 µM (inactive); with SR it was > 100 µM (inactive); in the experiment with RXF 393, > 100 µM (inactive); with HCT-15, above 100 µM; in the experiment with MOLT-4 it was > 100 µM (inactive). Besides, the GI50 in the experiment with UO-31, in the experiment on COLO 205, in the experiment on T47D, in the experiment on UACC-62, with M14 and with CAKI-1 was > 100 µM (inactive) throughout. For the same molecule, the GI50 was > 100 µM (inactive) in the experiment with SNB-75; > 100 µM (inactive) in the experiment with 786-0; > 100 µM (inactive) in the experiment with SK-MEL-2; > 100 µM (inactive) with U-251; > 100 µM (inactive) in the experiment on NCI-H23; 83.9 µM (inactive) in the experiment on NCI-H522. In the experiment with K562, the GI50 was > 100 µM (inactive).

Consider `Fc1ccc(C(=C2CCN(CCc3ccc4[nH]c(=S)[nH]c4c3)CC2)c2ccc(F)cc2)cc1`, for which the GI50 with MDA-N was 1.96 µM (inactive); with SW-620 it was 2.47 µM (inactive); in the experiment with SR it was 2.7 µM (inactive); in the experiment with RXF 393, 1.85 µM (inactive); in the experiment on HCT-15, 3.15 µM; in the experiment on MOLT-4 it was 3 µM (inactive). Further, the GI50 is 2.67 µM (inactive) in the experiment with UO-31; 1.72 µM (inactive) with COLO 205; 1.92 µM (inactive) with T47D; 5.32 µM (inactive) with UACC-62; 1.83 µM (inactive) with M14; 10.8 µM (inactive) in the experiment with CAKI-1. Moreover, the GI50 in the experiment with SNB-75 is 2.92 µM (inactive); in the experiment with 786-0, 1.86 µM (inactive); in the experiment with SK-MEL-2, 2.7 µM (inactive); in the experiment with U-251 it was 4.48 µM (inactive); in the experiment with NCI-H23 it was 5.02 µM (inactive); with NCI-H522, 1.52 µM (inactive). In addition, the GI50 with K562 is 3.1 µM (inactive).

`COc1c2occc2c(OC)c2c(=O)c(S(=O)(=O)NC(=O)Nc3ccc(Cl)cc3)coc12`: the GI50 was > 10 µM (inactive) in the experiment with MDA-N; > 10 µM (inactive) with SW-620; > 10 µM (inactive) in the experiment on SR; > 10 µM (inactive) in the experiment with RXF 393; above 10 µM with HCT-15; > 10 µM (inactive) with MOLT-4. In addition, the GI50 in the experiment with UO-31, in the experiment on COLO 205, with T47D, with UACC-62, in the experiment on M14 and in the experiment on CAKI-1 was > 10 µM (inactive) each time. Moreover, the GI50 in the experiment with 786-0, with SK-MEL-2, in the experiment with HCC 2998, with U-251, with NCI-H23 and in the experiment on NCI-H522 was > 10 µM (inactive) in each case. The GI50 in the experiment on K562 is > 10 µM (inactive).

These data come from ChEMBL document CHEMBL1201862, “PubChem BioAssay data set” (2004).
